# Test results: patent US20200000704A1, “DEGRADATION INHIBITOR OF HYALURONIC ACID, COMPRISING ROSEMARY EXTRACT AND RETINOL ACETATE” (Shiseido Company, Ltd., priority 2012, published 2020)
# “Also recorded” adds a separate entry of the source.
# Tested on: hyaluronidase
# Test: Examination for inhibiting hyaluronic acid degradation (hyaluronidase inhibition, p-DMAB colour reaction, OD 585 nm)
# Assay type: biochemical
# Conditions: final concentration: rosemary extract BG 0.000165 w/w % at dry weight, retinol acetate 0.0000516 w/w %; substrate sodium hyaluronate; absorbance OD 585 nm with control (water) adjusted to 100; FIG. 1
# Experimental: 50 μl hyaluronidase solution (1 mg/ml) (Sigma Aldrich Japan K.K.) was placed into a microtube, and 50 μl of an evaluation drug was added, and then the mixture was incubated for 10 min at 37° C. Rosemary extract BG (Maruzen Pharmaceuticals, Co., Ltd.), retinol acetate (BASF Japan Ltd.), and rosemary extract and retinol acetate were used as the evaluation drug, and water was used as a control instead of the evaluation agent. Rosemary extract BG was added so that the final concentration thereof after addition of hyaluronic acid sodium aqueous solution was 0.000165 w/w % at dry weight. Retinol acetate was added so that the final concentration thereof after addition of hyaluronic acid sodium aqueous solution was 0.0000516 w/w %. After incubation, 400 μl of 1 mg/ml sodium hyaluronate (Shiseido Co., Ltd., MW 1,100,000-1,600,000) was added to the solution, and then incubated at 37° C., for 10 min, and then 50 μl of sodium hydroxide (0.2 M) was added to stop the reaction. This solution was boiled for 3 min, then cooled with flowing water. 300 μl of 10% p-DMAB (dimethylaminobenzaldehyde) solution (NACALAI TESQUE, Inc.) was added to the solution, and then incubated for 37° C. for 20 min. After bringing it back to room temperature, 100 μl of each solution was poured into each well of 96 well-plate, and OD 585 nm was determined by using […] Pharma Biomedical Co., Ltd.).
substance,measurement,value
retinol acetate,hyaluronidase inhibitory activity,does not have a hyaluronidase activity; also recorded: did not have a hyaluronidase inhibitory activity
